Experimental data: patent publication US8846687B2, “Pyrazine compounds as PI3 kinase inhibitors” (Novartis AG, priority 2008, dated 2014)
pIC50: −log10 of the molar value.

These molecules were tested against recombinant GST-p110γ (human PI 3-Kγ) (Homo sapiens, UniProt P48736) (assay: PI 3-kinase gamma in vitro kinase assay (Scintillation Proximity Assay)).
Sequence of recombinant GST-p110γ (human PI 3-Kγ) (P48736 38-1102): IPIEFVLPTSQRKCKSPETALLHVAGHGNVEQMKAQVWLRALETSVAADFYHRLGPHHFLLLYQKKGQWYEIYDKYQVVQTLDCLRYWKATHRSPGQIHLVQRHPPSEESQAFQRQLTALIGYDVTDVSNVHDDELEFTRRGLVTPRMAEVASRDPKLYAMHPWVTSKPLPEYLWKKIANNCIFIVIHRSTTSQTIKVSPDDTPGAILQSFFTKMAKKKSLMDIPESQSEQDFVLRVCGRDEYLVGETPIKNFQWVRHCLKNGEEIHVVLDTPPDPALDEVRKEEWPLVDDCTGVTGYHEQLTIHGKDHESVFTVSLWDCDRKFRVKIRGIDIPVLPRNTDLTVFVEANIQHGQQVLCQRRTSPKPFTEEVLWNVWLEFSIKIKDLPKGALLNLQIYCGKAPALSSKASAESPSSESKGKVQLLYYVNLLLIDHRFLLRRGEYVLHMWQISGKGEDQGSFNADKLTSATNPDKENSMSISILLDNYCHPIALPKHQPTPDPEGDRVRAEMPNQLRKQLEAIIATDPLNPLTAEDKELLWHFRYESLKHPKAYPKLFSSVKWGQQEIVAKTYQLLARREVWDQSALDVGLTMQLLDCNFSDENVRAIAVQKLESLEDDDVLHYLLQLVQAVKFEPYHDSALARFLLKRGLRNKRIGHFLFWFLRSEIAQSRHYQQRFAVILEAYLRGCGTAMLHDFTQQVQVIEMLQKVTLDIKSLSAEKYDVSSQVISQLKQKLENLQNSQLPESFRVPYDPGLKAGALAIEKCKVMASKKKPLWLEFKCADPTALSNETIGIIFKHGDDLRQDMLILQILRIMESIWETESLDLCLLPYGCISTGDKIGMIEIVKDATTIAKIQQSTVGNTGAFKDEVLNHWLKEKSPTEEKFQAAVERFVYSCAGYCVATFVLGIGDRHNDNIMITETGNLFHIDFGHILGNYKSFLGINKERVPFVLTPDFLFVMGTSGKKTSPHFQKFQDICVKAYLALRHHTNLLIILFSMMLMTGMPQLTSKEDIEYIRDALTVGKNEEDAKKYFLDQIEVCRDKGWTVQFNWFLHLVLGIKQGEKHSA
Description: To express the recombinant protein, Sf9 (Spodoptera frugiperda 9) insect cells are routinely maintained at densities between 3×10^5 and 3×10^6 cells/ml in serum containing TNMFH medium (Sigma). Sf9 cells, at a density of 2×10^6 are infected with human GST-PI 3-KγΔ34 baculovirus at a multiplicity of infection (m.o.i.) of 1 for 72 hours. The infected cells are harvested by centrifugation at 1400 g for 4 minutes at 4° C. and the cell pellets are frozen at −80° C. […] Sf9 cells (1×10^9) are resuspended in 100 ml cold (4° C.) lysis buffer (50 mM Tris-HCl pH 7.5, 1% Triton X-100, 150 mM NaCl, 1 mM NaF, 2 mM DTT and protease inhibitors. Cells are incubated on ice for 30 minutes then centrifuged at 15000 g for 20 minutes at 4° C. Purification of the supernatant sample is carried out at 4° C. by affinity chromatography using SEPHAROSE™ agarose gel beads coupled to glutathione (from Amersham Pharmacia Biotech). A cell lysate/GST resin ratio of 50:1 is used. The GST resin is firstly pre-rinsed to remove ethanol preservative and then equilibrated with lysis buffer. Cell lysate (supernatant) is added (usually as 50 ml lysate to 1 ml GST resin in 50 ml tubes) and gently rotated on a mixer at 4° C. for 2-3 hours. The unbound flow through sample is collected by centrifugation at 1000 g for 5 minutes at 4° C. using a DENLEY™ centrifuge. The 1 ml GST resin containing bound material is transferred to a 15 ml FALCON™ centrifuge tube for subsequent washing and elution steps. Firstly a series of 3 cycles of washings (mixing by gentle inversion) is performed with 15 ml ice cold wash Buffer A (50 mM Tris-HCl pH 7.5, 1% Triton X-100, 2 mM DTT) interspersed with centrifugation at 1000 g for 5 minutes at 4° C. A final single wash step is performed with 15 ml ice cold wash Buffer B (50 mM Tris-HCl pH 7.5, 2 mM DTT) and then centrifuged at 1000 g for 5 minutes at 4° C. The washed GST resin is finally eluted with 4 cycles of 1 ml ice cold elution buffer (50 mM Tris-HCl pH 7.5, 10 mM reduced glutathione, 2 mM DTT, 150 mM NaCl, 1 mM NaF, 50% ethylene glycol and protease inhibitors) interspersed with centrifugation at 1000 g for 5 minutes at 4° C. Samples are aliquoted and stored at −20° C.
An in vitro kinase assay was established that measures the transfer of the terminal phosphate of adenosine triphosphate to phosphatidylinositol. The kinase reaction is performed in a white 96 well microtitre plate as a Scintillation Proximity Assay. Each well contains 10 μl test compound in 5% dimethylsulfoxide and 20 μl assay mix (40 mM Tris, 200 mM NaCl, 2 mM ethyleneglycol-aminoethyl-tetraacetic acid (EGTA), 15 μg/ml phosphatidylinositol, 12.5 μM adenosine triphosphate (ATP), 25 mM MgCl2, 0.1 μCi [^33P]ATP). The reaction is started by the addition of 20 μl of enzyme mix (40 mM Tris, 200 mM NaCl, 2 mM EGTA containing recombinant GST-p110γ).

Structure (SMILES)	pIC50
Nc1ncc(-c2cnc(N)c(C(=O)c3cccnc3)n2)cc1C(F)(F)F [Example 1, [3-Amino-6-(6-amino-5-trifluoromethyl-pyridin-3-yl)-pyrazin-2-yl]-pyridiny-3-yl-methanone]	7.48
Nc1ncc(-c2ccc(Cl)c(S(=O)(=O)Nc3ccccc3)c2)nc1C(=O)c1cccnc1 [Example 13, 5-[5-Smino-6-(pyridine-3-carbonyl)-pyrazin-2-yl]-2-chloro-N-phenyl-benzenesulfonamide]	7.92
Nc1ncc(-c2cncc(C(=O)N3CCOCC3)c2)nc1C(=O)c1cccnc1 [Example 28]	6.43
Nc1ncc(-c2ccc3c(c2)OCO3)nc1C(=O)c1cccnc1 [Example 35, (3-Amino-6-benzo[1,3]dioxol-5-yl-pyrazin-2-yl)-pyridin-3-yl-methanone]	6.23
Nc1ncc(-c2cccc(C(=O)O)c2)nc1C(=O)c1cccnc1 [Example 49, 3-[5-Amino-6-(pyridine-3-carbonyl)-pyrazin-2-yl]-benzoic acid]	6.44
Nc1cccc(-c2cnc(N)c(C(=O)c3cccnc3)n2)c1 [Example 51, [3-Amino-6-(3-amino-phenyl)-pyrazin-2-yl]-pyridin-3-yl-methanone]	6.41
Nc1ncc(-c2cc(C(F)(F)F)cc(S(N)(=O)=O)c2)nc1C(=O)c1cccnc1 [Example 67, 3-[5-Amino-6-(pyridine-3-carbonyl)-pyrazin-2-yl]-5-trifluoromethyl-benzenesulfonamide]	6.37
Nc1ncc(-c2cc(S(=O)(=O)N3CCOCC3)c(F)cc2F)nc1C(=O)c1cccnc1 [Example 74, {3-Amino-6-[2,4-difluoro-5-(morpholine-4-sulfonyl)-phenyl]-pyrazin-2-yl}-pyridin-3-yl-methanone]	6.90
Nc1ncc(-c2ccc(Cl)c(Cl)c2)nc1C(=O)c1ccc(CN2CCCCC2)cc1 [Example 86, [3-Amino-6-(3,4-dichloro-phenyl)-pyrazin-2-yl]-(4-piperidin-1-ylmethyl-phenyl)-methanone]	6.12
